Experimental data published in PMC12196235, “Enhancing the Pharmacological Properties of Triterpenes Through Acetylation: An Anticancer and Antioxidant Perspective” (Molecules, 2025).
Several values for one entry are separate records, joined by “and”; a condition that tells them apart may be missing. Identical values can stand only once. Like-named read-outs stand apart in the source and are kept apart here.

How the values were obtained:
[1] = system: HeLa (human cervical epithelioid carcinoma); assay: MTT assay, HeLa; assay type: cell-based
In short: (§1)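 Cells cultured at 37 °C in serum-supplemented medium (10% FBS, 1% L-glutamine, 1% pen/strep): HeLa in DMEM, MCF-7 and A-549 in RPMI 1640, HDF in fibroblast basal medium. Compound effects were then assessed by MTT assay.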

[2] = system: KB (human oral squamous carcinoma); assay: MTT assay, KB; assay type: cell-based
[3] = system: A-549 (human lung carcinoma); assay: MTT assay, A-549; assay type: cell-based
In short: as §1

[4] = system: HDF (human dermal fibroblasts); assay: MTT assay, normal HDF; assay type: cell-based; conditions: Homo sapiens, Fibroblast, read-out: IC50 (±SD), HDF
In short: as §1

SKOV-3 = assay: Apoptosis assay (Cell Death Detection ELISA Plus), SKOV-3; assay type: cell-based, human
Protocol: (§2) The induction of apoptosis by tested compounds was determined with Cell Death Detection ELISA Plus from Roche Diagnostics GmbH (Mannheim, Germany).
(§3) Cell Death Detection ELISA Plus is an enzyme immunoassay for determining cytoplasmic histone-associated DNA fragments (mono- and […]) after induced cell death. Cells (10^4) were pipetted into wells of 96-well plates, and test compounds were added at final concentrations of 0.1, 1.0 and 10.0 µg × mL^−1. Cells incubated in the absence of test compounds served as negative controls. After 4 h of incubation, cells were harvested by centrifugation of the plates for 10 min at 200× g. Supernatants were removed carefully, and cell pellets were resuspended in 200 µL of cell lysis buffer and incubated for 30 min at room temperature. After centrifugation of the plates (10 min at 200× g), 20 µL of cell lysates was transferred in duplicate into wells of provided streptavidin-coated microplates. Then, 80 µL of the immunoreagent containing a mixture of anti-histone-biotin monoclonal antibody and anti-DNA-peroxidase monoclonal antibody was added to each well. The microplates were covered with a provided adhesive foil and incubated for 2 h at room temperature. Thereafter, the solution in the wells was removed by tapping the microplate. The wells were rinsed three times with incubation buffer, and 100 µL of substrate (2,2′-azino-bis [3-ethylbenzothiazoline-6-sulphonic acid], ABTS) was added to each well. After 10–20 min, 100 µL of ABTS stop solution was pipetted to each well, and the absorbance was read at 405 nm (test wavelength) and 490 nm (reference wavelength). The apoptotic index was calculated based on the enrichment of mono- and oligonucleosomes according to the following equation:apoptotic index = [{A405(sample) − A490(sample)}/{A405(negative control) − A490(negative control)}]

PC-3 = assay: Apoptosis assay (Cell Death Detection ELISA Plus), PC-3; assay type: cell-based, human; conditions: PC-3, 4 h incubation, enrichment of mono- and oligonucleosomes vs negative control
Protocol: as §2, §3

DPPH antioxidant assay = conditions: calculated from Trolox standard curve
Protocol: The results are presented as % inhibition of the copper(II) ions and Trolox equivalent calculated from the standard curve (Figure 9) and as % inhibition of the DPPH radical and Trolox equivalent, calculated from the standard curve (Figure 10).
The CUPRAC reagent (7.5 mM ethanolic 96% neocuproine solution, 10 mM CuCl2 × H2O solution and an ammonium acetate buffer of pH 7.0) and DPPH reagent (2,2-diphenyl-1-picrylhydrazyl 0.2 mM solution) were applied.
The CUPRAC method measures the reducing power of a sample by quantifying its ability to convert the Cu-neocuproine reagent complex to the Cu(I) form. In contrast, the DPPH assay relies on the ability of an antioxidant to donate a hydrogen atom or an electron to the stable DPPH radical, resulting in its reduction and subsequent color change. The results are presented as % inhibition of the copper(II) ions and Trolox equivalent calculated from the standard curve (Figure 9) and as % inhibition of the DPPH radical and Trolox equivalent, calculated from the standard curve (Figure 10). The spectroscopic detection in CUPRAC and DPPH assays was conducted with Synergy H1 Multi-Mode Microplate Reader (BioTek Instruments, Inc., Winooski, VT, USA). The details of the experiments are given in [102].

[5] = system: SFV (Semliki Forest virus); set-up: method as in PMID 19839605; conditions: ref 43; read-out: antiviral IC50 (SFV); cited from earlier work
[6] = system: SK-N-AS (human neuroblastoma); conditions: ref 47; read-out: anticancer IC50 (SK-N-AS); cited from earlier work
C-6 = conditions: ref 47; read-out: anticancer IC50 (C-6); cited from earlier work
[7] = system: TE-671 (human rhabdomyosarcoma–medulloblastoma); conditions: ref 47; read-out: anticancer IC50 (TE-671); cited from earlier work
[8] = system: T-47D (human breast carcinoma); conditions: cited from earlier work; for IC50: read-out: anticancer IC50 (T-47D)
[9] = system: RPMI-8226 (human multiple myeloma); conditions: ref 47; read-out: anticancer IC50 (RPMI-8226); cited from earlier work
[10] = system: HPOC (human ovarian carcinoma); conditions: ref 47; read-out: anticancer IC50 (HPOC); cited from earlier work
[11] = system: SGC7901 (human gastric carcinoma); conditions: ref 48, cited from earlier work

With `C=C(C)[C@@H]1CC[C@]2(CO)CC[C@]3(C)[C@H](CC[C@@H]4[C@@]5(C)CC[C@H](O)C(C)(C)[C@@H]5CC[C@]43C)[C@@H]12` [5a, betulin] the IC50 ([1]; Homo sapiens, MTT assay, HeLa, read-out: IC50 (±SD), HeLa) was 18.3 µM, the “Selectivity index (SI), HeLa” value ([1]; IC50 HDF / IC50 HeLa) was 0.86 and the IC50 ([2]; Homo sapiens, MTT assay, KB) was 19.7 µM. For the same compound, the “Selectivity index (SI), KB” value ([2]; IC50 HDF / IC50 KB) was 0.80, the IC50 ([3]; Homo sapiens, A549, MTT assay, A-549, read-out: IC50 (±SD), A-549) was 19.6 µM and the “Selectivity index (SI), A-549” value ([3]; IC50 HDF / IC50 A-549) was 0.81. The IC50 [4] was 15.8 µM, the mean apoptotic index (SKOV-3; 0.1 µg/mL, mean over SKOV-3 and PC-3) was 5.54 and the “Apoptotic index (AI), SKOV-3” value (SKOV-3; SKOV-3, 4 h incubation, enrichment of mono- and oligonucleosomes vs negative control) was 5.26 (0.03). For the same compound, the “Apoptotic index (AI), PC-3” value (PC-3) was 5.82 (0.03), the “Trolox Equivalent, DPPH Assay” value (DPPH antioxidant assay) was 0.01077 mg/mL and 0.01077 ± 0.000446 mg/mL and the IC50 [5] was 45.5 µM. For the same compound, the IC50 [6] was 2.5 µM, the IC50 (C-6) was 5.9 µM and the IC50 [7] was 10.3 µM. The IC50 ([8]; ref 47) was 5.2 µM, the “anticancer IC50 (T-47D)” value ([8]; ref 49) was 32.4 µg/mL and the IC50 ([8]; ref 49) was 73.2 µM. For the same compound, the IC50 [9] was 6.4 µM, the IC50 [10] was 2.8 µM and the “anticancer IC50 (SGC7901)” value [11] was 13 µg/mL. For the same compound, the IC50 ([11]; read-out: anticancer IC50 (SGC7901)) was 29.4 µM.
